In patent publication US12061201B2, “Fluorescent probes for the visualization of FtsZ in gram-positive and gram-negative bacterial pathogens” (Rutgers, The State University of New Jersey, priority 2019, dated 2024):
Entries after “also recorded” stand apart in the source; their conditions may differ.

How the values were obtained:
[1] = test system: FtsZ in K. pneumoniae ATCC 13883 cells; experiment: Fluorescence microscopy FtsZ visualization in live cells; format: cell-based
Description: (§1) Fluorescence microscopy assay for visualizing FtsZ and monitoring cell division in live Gram-positive and Gram-negative bacterial cells using BOFP. All fluorescence microscopy experiments were conducted using an Olympus BX50 microscope equipped with an X-cite Exacte 200W mercury lamp, a 100× Olympus UPLSAPO oil immersion objective (1.40 aperture), and a Chroma ET-EGFP (FITC/Cy2) filter. Images were captured using a QImaging Retiga R3 charge-coupled device (CCD) camera and the Ocular-Version 2.0 software package (QImaging).
(§2) For visualizing FtsZ in Gram-negative bacteria using BOFP, E. coli ATCC 25922, K. pneumoniae ATCC 13883, P. aeruginosa ATCC 27853, and A. baumannii ATCC 19606 were grown to log-phase in CAMH broth. For each Gram-negative bacterial strain, a total of 1 mL of cell culture was centrifuged at 15,000×g for 1 minute and washed twice with 1 mL of Tris-buffered saline (TBS) composed of 50 mM Tris-HCl pH 7.6 and 150 mM NaCl. […] The resuspended cells were then incubated in the dark for 5 minutes at room temperature, centrifuged at 15,000×g for 1 minute, washed twice with 1 mL of TBS, and subsequently resuspended in 200 μL of TBS. This final cell suspension was then prepared for microscopy as described above for the Gram-positive bacterial strains.

[2] = test system: FtsZ in A. baumannii ATCC 19606 cells; experiment: as above; format: cell-based; conditions: 1 μg/mL BOFP for 5 minutes, no pentamidine
Description: as §1, §2

[3] = target: T1, FtsZ in P. aeruginosa ATCC 27853 cells (Pseudomonas aeruginosa, UniProt P47204); experiment: as above; format: cell-based; conditions: 1 μg/mL BOFP for 5 minutes, no pentamidine
T1 construct: endogenous in cells; host or cells: P. aeruginosa ATCC 27853
T1 sequence (P47204 1-394): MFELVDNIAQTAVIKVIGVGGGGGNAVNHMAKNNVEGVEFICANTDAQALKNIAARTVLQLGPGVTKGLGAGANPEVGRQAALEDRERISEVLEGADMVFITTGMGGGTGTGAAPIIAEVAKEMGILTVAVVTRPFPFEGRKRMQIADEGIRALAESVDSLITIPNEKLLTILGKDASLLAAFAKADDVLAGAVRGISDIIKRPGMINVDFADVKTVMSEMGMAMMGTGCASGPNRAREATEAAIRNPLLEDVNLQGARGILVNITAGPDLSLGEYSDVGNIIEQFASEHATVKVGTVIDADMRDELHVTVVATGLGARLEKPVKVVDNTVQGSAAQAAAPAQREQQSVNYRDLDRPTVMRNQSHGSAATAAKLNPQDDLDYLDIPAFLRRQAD
Description: as §1, §2

[4] = target: T2, FtsZ in E. coli ATCC 25922 cells (Escherichia coli, UniProt P0A9A6); experiment: as above; format: cell-based; conditions: 1 μg/mL BOFP for 5 minutes, no pentamidine
T2 construct: endogenous in cells; host or cells: E. coli ATCC 25922
Description: as §1, §2

S. aureus FtsZ (SaFtsZ) = target: T3, S. aureus FtsZ (SaFtsZ) (Staphylococcus aureus, UniProt P0A031); experiment: Fluorescence anisotropy binding of BOFP to FtsZ; conditions: 0.1 μM BOFP, 10 μM SaFtsZ, 37° C.
T3 sequence (P0A031 1-390): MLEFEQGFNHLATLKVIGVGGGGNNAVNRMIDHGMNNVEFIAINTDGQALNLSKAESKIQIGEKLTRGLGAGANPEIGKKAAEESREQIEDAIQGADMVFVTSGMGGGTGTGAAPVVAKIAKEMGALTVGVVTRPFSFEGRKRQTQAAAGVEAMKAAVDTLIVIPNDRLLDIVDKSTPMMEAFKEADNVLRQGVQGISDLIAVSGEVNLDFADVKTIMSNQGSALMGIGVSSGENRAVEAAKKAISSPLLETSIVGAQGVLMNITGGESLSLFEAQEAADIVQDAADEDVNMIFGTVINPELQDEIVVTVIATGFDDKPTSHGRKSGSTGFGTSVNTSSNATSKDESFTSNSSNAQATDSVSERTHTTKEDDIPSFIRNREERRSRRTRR

[5] = test system: FtsZ in E. faecium ATCC 19434 cells; experiment: Fluorescence microscopy FtsZ visualization in live cells; format: cell-based; conditions: 1 μg/mL (1.3 μM) BOFP, 5 minutes
Description: as §1
(§3) For visualizing FtsZ in Gram-positive bacteria using BOFP, the bacterial cells were grown to log-phase in media suitable for each individual pathogen. Specifically, S. aureus NRS705 was grown in tryptic soy broth (TSB), E. faecalis ATCC 29212 and E. faecium ATCC 19434 were grown in lactobacilli MRS broth, S. agalactiae ATCC 12386 and S. pneumoniae ATCC 49619 were grown in TH broth, and S. pyogenes ATCC 19615 was grown in CAMH broth supplemented with 3% (v/v) LHB. For each Gram-positive bacterial strain, a total of 1 mL of cell culture was centrifuged at 15,000×g for 1 minute and washed 2-3 times with 1 mL of PBS. After the final wash, the pelleted cells were resuspended in 500 μL of PBS containing 1 μg/mL of BOFP and incubated in the dark for 5 minutes at room temperature. The cells were then centrifuged at 15,000×g for 1 minute, washed twice with 1 mL of PBS, and subsequently resuspended in 200 μL of PBS. 8 μL of this final cell suspension was then spread on a 0.25 mm layer of 1.5% high-resolution agarose (Sigma) in PBS, which was mounted on a standard 75×25×1 mm microscope slide (Azer Scientific) using a 1.7×2.8×0.025 cm Gene Frame (ThermoFisher). A 24×40 mm cover slip (Azer Scientific) was then applied to the agarose pad to prepare the slide for microscopic visualization.

[6] = test system: FtsZ in S. pneumoniae ATCC 49619 cells; experiment: as above; format: cell-based; conditions: 1 μg/mL (1.3 μM) BOFP, 5 minutes
Description: as §1, §3

[7] = target: T4, FtsZ in S. aureus NRS705 cells (Staphylococcus aureus, UniProt P0A031); experiment: as above; format: cell-based; conditions: 1 μg/mL (1.3 μM) BOFP, 5 minutes
T4 construct: endogenous in cells; host or cells: S. aureus NRS705
T4 sequence (P0A031 1-390): T3 sequence (P0A031 1-390)
Description: as §1, §3

[8] = target: T5, FtsZ in E. faecalis ATCC 29212 cells (Enterococcus faecalis, UniProt O08439); experiment: as above; format: cell-based; conditions: 1 μg/mL (1.3 μM) BOFP, 5 minutes
T5 construct: endogenous in cells; host or cells: E. faecalis ATCC 29212
Description: as §1, §3

[9] = test system: FtsZ in S. pyogenes ATCC 19615 cells; experiment: as above; format: cell-based; conditions: 1 μg/mL (1.3 μM) BOFP, 5 minutes
Description: as §1, §3

[10] = test system: FtsZ in S. agalactiae ATCC 12386 cells; experiment: as above; format: cell-based; conditions: 1 μg/mL (1.3 μM) BOFP, 5 minutes
Description: as §1, §3

T5 sequence (O08439 whole entry): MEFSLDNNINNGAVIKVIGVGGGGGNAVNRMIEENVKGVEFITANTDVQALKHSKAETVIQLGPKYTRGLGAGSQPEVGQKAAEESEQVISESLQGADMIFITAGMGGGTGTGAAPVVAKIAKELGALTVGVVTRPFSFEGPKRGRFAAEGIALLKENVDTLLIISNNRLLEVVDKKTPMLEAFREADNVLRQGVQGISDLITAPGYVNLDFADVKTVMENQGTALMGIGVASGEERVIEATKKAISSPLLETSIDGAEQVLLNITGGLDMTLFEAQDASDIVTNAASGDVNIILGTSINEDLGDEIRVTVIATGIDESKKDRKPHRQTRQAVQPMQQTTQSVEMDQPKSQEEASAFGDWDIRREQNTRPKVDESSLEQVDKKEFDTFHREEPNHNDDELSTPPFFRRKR
T2 sequence (P0A9A6 whole entry): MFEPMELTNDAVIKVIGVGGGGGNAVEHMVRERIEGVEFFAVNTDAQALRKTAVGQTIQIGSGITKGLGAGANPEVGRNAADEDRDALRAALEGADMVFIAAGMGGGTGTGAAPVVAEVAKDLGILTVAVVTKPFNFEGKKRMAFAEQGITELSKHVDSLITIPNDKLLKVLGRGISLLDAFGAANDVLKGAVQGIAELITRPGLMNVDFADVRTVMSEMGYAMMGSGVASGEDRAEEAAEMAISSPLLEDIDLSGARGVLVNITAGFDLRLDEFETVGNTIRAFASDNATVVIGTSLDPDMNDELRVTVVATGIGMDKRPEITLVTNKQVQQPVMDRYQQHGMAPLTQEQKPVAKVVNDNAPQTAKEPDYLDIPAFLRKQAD

Compound: CC1=CC(C)=[N+]2C1=Cc1ccc(CCC(=O)OCC(Oc3ccc(F)c(C(N)=O)c3F)c3nc(-c4ccc(C(F)(F)F)cc4)c(Br)o3)n1[B-]2(F)F (stereo not shown) [BOFP, 2-(5-bromo-4-(4-(trifluoromethyl)phenyl)-oxazol-2-yl)-2-(3-carbamoyl-2,4-difluorophenoxy)ethyl 3-(5,5-difluoro-7,9-dimethyl-5H-5λ^4,6λ^4-dipyrrolo[1,2-c:2′,1′-f][1,3,2]diazaborinin-3-yl)propanoate]
- FtsZ labeling in live cells without pentamidine ([1]; 1 μg/mL BOFP for 5 minutes, no pentamidine): little or no FtsZ labeling
- FtsZ labeling (fluorescence staining) in live cells ([1]; 1 μg/mL BOFP with 3.5 mg/mL pentamidine isethionate, 5 minutes): bright fluorescence staining is visible both at midcell and along the cell periphery
- FtsZ labeling in live cells without pentamidine [2]: little or no FtsZ labeling
- FtsZ labeling in live cells without pentamidine [3]: little or no FtsZ labeling
- FtsZ labeling in live cells without pentamidine [4]: little or no FtsZ labeling
- effect of both GMPCPP and MgCl2 on the anisotropy of SaFtsZ-bound BOFP (S. aureus FtsZ (SaFtsZ); GMPCPP 0.1 mM and MgCl2 10 mM): modest increase in the anisotropy
- effect of GMPCPP alone or MgCl2 alone on the anisotropy of SaFtsZ-bound BOFP (S. aureus FtsZ (SaFtsZ); GMPCPP 0.1 mM or MgCl2 10 mM): neither GMPCPP alone (at 0.1 mM) nor MgCl2 alone (at 10 mM) has a significant effect; also recorded: independent of either GTP or magnesium
- FtsZ labeling (fluorescence staining) in live cells [5]: bright bands of fluorescence staining were clearly visible at midcell
- FtsZ labeling (fluorescence staining) in live cells [6]: bright bands of fluorescence staining were clearly visible at midcell
- FtsZ labeling (fluorescence staining) in live cells [7]: bright bands of fluorescence staining were clearly visible at midcell
- FtsZ labeling (fluorescence staining) in live cells [8]: bright bands of fluorescence staining were clearly visible at midcell
- FtsZ labeling (fluorescence staining) in live cells [9]: bright bands of fluorescence staining were clearly visible at midcell
- FtsZ labeling (fluorescence staining) in live cells [10]: bright bands of fluorescence staining were clearly visible at midcell
